Experiments:
[1] = molecular target: Atypical kinase COQ8A, mitochondrial (Homo sapiens) (UniProt Q8NI60); test: Inhibition of ADCK3 (unknown origin) assessed as residual activity at 1000 nM by KINOMEscan analysis relative to control
[2] = molecular target: Cyclin-dependent kinase 9 (Homo sapiens) (UniProt P50750); test: Inhibition of CDK9 (unknown origin) assessed as residual activity at 1000 nM by KINOMEscan analysis relative to control
[3] = molecular target: Casein kinase II subunit alpha (Homo sapiens) (UniProt P68400); test: Inhibition of CSNK2A1 (unknown origin) assessed as residual activity at 1000 nM by KINOMEscan analysis relative to control
Casein kinase II subunit alpha (Homo sapiens), sequence (P68400 whole entry, looked up): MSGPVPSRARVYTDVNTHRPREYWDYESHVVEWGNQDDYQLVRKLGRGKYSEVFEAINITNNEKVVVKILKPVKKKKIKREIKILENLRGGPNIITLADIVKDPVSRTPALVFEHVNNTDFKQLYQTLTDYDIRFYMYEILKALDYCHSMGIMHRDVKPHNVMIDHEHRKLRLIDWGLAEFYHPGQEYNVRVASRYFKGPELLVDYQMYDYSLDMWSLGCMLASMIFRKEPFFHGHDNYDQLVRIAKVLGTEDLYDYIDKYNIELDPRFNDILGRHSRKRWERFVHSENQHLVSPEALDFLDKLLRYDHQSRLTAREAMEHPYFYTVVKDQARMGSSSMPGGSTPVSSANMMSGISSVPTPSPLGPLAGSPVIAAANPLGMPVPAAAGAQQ

[4] = molecular target: T1, Ephrin type-B receptor 1 (Homo sapiens) (UniProt P54762); test: Inhibition of EPHB1 (unknown origin) assessed as residual activity at 1000 nM by KINOMEscan analysis relative to control
T1 sequence (whole entry): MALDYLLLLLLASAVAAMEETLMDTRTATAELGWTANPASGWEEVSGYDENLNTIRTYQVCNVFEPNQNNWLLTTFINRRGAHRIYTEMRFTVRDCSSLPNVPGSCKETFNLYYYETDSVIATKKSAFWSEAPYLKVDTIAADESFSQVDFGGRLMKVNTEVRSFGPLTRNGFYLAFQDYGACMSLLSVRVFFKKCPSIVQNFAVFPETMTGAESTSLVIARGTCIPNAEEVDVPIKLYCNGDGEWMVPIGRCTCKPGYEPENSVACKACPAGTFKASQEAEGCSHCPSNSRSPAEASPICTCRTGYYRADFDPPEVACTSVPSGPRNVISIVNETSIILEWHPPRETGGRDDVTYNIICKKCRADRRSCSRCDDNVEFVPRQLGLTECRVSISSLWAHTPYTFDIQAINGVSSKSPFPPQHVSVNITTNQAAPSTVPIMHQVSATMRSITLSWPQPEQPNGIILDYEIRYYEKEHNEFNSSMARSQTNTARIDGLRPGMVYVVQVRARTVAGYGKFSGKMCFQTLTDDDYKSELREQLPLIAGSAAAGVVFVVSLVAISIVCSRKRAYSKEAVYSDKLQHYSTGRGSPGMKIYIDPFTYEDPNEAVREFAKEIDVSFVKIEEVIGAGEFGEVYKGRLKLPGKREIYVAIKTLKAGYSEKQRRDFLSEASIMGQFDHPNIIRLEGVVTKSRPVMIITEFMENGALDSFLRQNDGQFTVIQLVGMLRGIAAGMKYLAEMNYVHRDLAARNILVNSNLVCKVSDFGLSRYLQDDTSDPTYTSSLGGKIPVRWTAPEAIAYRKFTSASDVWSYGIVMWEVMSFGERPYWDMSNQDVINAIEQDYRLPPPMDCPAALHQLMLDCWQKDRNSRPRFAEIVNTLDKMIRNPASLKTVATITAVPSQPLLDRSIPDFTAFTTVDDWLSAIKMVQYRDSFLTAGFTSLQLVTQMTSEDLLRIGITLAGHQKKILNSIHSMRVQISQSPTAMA

[5] = molecular target: Leucine-rich repeat serine/threonine-protein kinase 2 (Homo sapiens) (UniProt Q5S007); test: Inhibition of LRRK2 (unknown origin) assessed as residual activity at 1000 nM by KINOMEscan analysis relative to control
Leucine-rich repeat serine/threonine-protein kinase 2 (Homo sapiens), sequence (Q5S007 whole entry): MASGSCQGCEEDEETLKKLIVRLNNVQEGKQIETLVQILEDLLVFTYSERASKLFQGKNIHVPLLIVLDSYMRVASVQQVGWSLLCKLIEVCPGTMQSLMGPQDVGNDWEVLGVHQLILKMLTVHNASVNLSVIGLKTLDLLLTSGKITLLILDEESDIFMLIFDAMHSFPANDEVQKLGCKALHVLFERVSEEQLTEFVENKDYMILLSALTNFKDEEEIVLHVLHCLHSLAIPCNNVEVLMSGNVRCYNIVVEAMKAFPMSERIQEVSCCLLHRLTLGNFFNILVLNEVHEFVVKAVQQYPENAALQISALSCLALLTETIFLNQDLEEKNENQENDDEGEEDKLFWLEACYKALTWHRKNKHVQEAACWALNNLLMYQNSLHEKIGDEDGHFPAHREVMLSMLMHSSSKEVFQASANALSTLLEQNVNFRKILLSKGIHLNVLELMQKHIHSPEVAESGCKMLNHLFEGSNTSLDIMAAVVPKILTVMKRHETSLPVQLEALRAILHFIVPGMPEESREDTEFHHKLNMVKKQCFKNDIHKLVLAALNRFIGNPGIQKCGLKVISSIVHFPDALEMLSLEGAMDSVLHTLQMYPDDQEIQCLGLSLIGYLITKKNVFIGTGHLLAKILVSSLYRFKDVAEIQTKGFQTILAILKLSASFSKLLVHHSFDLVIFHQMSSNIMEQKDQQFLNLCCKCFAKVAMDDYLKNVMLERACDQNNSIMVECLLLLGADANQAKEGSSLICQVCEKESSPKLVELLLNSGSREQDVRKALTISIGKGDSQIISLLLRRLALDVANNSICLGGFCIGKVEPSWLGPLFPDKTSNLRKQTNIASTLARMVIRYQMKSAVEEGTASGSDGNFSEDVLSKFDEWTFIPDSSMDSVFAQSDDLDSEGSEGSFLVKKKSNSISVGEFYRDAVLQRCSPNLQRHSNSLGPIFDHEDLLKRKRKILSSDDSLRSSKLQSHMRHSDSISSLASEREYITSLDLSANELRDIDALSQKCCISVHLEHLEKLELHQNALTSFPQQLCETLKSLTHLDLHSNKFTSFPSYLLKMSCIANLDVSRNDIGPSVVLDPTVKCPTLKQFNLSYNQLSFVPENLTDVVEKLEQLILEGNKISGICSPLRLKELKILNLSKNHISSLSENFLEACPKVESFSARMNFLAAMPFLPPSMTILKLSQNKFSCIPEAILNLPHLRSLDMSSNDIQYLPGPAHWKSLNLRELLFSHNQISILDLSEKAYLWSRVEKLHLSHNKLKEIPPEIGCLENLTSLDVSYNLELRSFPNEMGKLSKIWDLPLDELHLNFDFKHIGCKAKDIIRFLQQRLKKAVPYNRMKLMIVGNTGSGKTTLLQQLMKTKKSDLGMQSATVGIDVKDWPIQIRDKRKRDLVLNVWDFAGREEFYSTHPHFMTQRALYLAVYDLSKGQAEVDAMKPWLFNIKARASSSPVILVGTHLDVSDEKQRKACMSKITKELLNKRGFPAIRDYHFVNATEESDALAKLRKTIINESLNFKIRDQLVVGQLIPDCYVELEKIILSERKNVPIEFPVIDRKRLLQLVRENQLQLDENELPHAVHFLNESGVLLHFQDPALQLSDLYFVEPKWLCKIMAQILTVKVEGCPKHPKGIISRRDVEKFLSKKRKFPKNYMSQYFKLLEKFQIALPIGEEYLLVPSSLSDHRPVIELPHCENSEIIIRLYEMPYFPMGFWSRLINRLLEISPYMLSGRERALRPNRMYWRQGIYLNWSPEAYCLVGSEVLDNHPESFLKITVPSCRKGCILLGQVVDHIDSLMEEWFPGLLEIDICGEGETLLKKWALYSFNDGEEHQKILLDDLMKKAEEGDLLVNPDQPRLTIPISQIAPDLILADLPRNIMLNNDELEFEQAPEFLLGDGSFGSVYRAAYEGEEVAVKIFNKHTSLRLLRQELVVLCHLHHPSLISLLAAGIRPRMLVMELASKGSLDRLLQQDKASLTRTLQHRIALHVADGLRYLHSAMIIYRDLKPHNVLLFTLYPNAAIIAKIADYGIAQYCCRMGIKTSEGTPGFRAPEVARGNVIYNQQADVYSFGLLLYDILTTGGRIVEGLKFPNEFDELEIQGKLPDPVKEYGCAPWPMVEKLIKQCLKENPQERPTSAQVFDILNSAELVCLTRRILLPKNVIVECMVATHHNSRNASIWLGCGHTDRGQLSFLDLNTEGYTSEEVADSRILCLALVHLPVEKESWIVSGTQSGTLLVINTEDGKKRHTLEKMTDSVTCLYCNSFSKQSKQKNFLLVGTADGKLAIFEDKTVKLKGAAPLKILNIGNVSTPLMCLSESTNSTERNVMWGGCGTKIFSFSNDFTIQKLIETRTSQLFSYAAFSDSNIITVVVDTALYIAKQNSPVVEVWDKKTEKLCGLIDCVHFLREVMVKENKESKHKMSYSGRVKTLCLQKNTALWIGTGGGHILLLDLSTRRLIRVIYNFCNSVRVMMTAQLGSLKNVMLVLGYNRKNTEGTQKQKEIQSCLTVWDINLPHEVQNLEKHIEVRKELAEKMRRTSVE

[6] = molecular target: Mitogen-activated protein kinase kinase kinase kinase 5 (Homo sapiens) (UniProt Q9Y4K4); test: Inhibition of MAP4K5 (unknown origin) assessed as residual activity at 1000 nM by KINOMEscan analysis relative to control
Mitogen-activated protein kinase kinase kinase kinase 5 (Homo sapiens), sequence (Q9Y4K4 whole entry, looked up): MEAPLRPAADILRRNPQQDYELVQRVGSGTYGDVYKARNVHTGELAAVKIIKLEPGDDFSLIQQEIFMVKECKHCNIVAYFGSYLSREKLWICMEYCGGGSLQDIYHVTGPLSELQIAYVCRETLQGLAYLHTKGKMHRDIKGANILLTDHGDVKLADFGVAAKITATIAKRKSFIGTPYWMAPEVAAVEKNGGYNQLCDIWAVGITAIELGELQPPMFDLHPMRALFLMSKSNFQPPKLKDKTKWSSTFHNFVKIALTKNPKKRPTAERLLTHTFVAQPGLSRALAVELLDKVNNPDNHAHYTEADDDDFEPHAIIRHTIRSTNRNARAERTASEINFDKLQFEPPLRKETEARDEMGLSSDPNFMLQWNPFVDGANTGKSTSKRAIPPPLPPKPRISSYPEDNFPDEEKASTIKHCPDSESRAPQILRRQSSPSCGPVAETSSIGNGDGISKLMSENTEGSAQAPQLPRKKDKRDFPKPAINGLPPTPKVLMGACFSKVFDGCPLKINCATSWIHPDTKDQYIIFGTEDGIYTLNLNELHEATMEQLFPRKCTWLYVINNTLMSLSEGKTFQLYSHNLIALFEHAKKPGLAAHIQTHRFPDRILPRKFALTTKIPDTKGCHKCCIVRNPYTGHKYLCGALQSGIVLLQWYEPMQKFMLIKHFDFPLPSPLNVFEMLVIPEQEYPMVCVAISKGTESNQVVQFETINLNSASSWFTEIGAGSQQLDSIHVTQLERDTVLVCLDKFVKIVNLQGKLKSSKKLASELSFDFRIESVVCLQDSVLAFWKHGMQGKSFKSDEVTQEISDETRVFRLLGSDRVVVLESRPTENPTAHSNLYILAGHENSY

[7] = molecular target: T2, Serine/threonine-protein kinase Nek5 (Homo sapiens) (UniProt Q6P3R8); test: Inhibition of NEK5 (unknown origin) assessed as residual activity at 1000 nM by KINOMEscan analysis relative to control
T2 sequence (whole entry): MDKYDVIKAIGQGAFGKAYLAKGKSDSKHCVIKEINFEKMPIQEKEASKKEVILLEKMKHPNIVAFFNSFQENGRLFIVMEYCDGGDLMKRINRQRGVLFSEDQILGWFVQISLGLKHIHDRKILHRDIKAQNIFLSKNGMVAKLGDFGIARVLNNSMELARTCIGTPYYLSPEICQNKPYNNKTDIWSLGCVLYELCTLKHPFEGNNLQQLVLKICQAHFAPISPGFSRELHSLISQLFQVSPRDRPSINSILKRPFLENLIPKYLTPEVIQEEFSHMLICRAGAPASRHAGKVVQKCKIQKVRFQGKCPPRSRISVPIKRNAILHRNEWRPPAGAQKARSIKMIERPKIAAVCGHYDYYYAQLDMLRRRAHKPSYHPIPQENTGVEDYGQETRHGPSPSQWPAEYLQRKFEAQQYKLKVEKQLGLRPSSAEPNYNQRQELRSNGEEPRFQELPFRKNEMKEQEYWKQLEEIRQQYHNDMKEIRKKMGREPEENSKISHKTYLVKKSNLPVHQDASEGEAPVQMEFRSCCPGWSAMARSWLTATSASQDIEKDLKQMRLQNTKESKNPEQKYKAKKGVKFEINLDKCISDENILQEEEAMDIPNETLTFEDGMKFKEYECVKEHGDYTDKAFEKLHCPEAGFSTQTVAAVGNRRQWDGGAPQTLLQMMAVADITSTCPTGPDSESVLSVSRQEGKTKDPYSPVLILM

[8] = molecular target: T3, Protein kinase C epsilon type (Homo sapiens) (UniProt Q02156); test: Inhibition of PRKCE (unknown origin) assessed as residual activity at 1000 nM by KINOMEscan analysis relative to control
T3 sequence (whole entry): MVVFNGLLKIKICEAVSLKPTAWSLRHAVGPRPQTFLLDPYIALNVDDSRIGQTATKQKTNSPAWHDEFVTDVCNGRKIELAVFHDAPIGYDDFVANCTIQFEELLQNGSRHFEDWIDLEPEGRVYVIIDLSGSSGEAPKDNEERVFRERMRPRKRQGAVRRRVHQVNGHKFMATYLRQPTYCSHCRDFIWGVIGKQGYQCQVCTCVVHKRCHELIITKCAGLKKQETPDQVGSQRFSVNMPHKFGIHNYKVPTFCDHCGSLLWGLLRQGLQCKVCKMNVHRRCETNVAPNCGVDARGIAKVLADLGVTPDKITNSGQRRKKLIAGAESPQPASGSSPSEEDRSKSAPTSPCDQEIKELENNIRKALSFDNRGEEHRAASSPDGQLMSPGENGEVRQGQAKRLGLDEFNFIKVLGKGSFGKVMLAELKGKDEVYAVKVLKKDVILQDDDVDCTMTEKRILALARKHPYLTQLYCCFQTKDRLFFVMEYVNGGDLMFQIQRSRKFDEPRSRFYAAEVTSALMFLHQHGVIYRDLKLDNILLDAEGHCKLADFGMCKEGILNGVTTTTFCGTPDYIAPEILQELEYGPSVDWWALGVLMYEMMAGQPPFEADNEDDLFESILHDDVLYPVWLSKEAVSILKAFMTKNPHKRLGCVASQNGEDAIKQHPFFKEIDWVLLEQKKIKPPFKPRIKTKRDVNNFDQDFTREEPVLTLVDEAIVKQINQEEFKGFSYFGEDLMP

Atypical kinase COQ8A, mitochondrial (Homo sapiens), sequence (Q8NI60 163-647 limits assumed): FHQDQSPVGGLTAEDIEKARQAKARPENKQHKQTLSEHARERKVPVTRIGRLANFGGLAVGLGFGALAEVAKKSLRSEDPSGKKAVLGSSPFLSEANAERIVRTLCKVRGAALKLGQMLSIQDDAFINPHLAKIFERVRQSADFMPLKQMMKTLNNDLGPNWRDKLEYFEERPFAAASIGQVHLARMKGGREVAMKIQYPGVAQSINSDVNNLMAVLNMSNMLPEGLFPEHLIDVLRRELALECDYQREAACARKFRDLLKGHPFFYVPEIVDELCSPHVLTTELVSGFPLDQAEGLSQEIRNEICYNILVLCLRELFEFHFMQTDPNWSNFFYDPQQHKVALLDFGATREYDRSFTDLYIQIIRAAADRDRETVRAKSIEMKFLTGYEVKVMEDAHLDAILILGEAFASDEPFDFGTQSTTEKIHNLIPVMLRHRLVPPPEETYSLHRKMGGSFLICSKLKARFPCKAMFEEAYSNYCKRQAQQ
Cyclin-dependent kinase 9 (Homo sapiens), sequence (P50750 whole entry): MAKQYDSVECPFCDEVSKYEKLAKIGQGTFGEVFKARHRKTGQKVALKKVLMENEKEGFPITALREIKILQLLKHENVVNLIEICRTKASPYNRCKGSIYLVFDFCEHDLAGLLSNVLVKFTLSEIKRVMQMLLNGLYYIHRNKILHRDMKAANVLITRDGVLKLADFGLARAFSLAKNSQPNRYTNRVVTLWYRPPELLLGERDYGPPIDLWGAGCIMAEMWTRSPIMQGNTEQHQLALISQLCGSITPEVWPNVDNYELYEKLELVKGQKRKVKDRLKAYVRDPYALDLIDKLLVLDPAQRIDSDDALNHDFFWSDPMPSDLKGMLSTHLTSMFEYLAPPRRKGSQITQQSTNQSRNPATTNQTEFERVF

Row | Structure (SMILES) | Activity [1] | Activity [2] | Activity [3] | Activity [4] | Activity [5] | Activity [6] | Activity [7] | Activity [8]
1 | COc1cc2nc(C)nc(N[C@H](C)c3cccc(-c4cn[nH]c4)c3)c2cc1OC | 98% | 95% | 70% | 77% | 94% | 96% | 90% | 80%
2 | COc1cc2ncnc(N[C@H](C)c3cccc4ccccc34)c2cc1OC | 94% | 95% | 100% | 100% | 99% | 100% | 85% | 95%

From ChEMBL document CHEMBL5678818, “Discovery of potent SOS1 inhibitors that block RAS activation via disruption of the RAS-SOS1 interaction” (Proc Natl Acad Sci U S A, 2019)
